{
  "source": "patent US8785460B2",
  "about": "“Tricyclic compounds and use thereof” (Takeda Pharmaceutical Company Limited, priority 2008, dated 2014)",
  "key": {"human CRF1 receptor": {"target": "T1, human CRF1 receptor (Homo sapiens, UniProt P34998)", "T1 construct": "expressed in transfected cells; host or cells: CHO cells (membrane fraction)", "T1 sequence (P34998 24-415)": "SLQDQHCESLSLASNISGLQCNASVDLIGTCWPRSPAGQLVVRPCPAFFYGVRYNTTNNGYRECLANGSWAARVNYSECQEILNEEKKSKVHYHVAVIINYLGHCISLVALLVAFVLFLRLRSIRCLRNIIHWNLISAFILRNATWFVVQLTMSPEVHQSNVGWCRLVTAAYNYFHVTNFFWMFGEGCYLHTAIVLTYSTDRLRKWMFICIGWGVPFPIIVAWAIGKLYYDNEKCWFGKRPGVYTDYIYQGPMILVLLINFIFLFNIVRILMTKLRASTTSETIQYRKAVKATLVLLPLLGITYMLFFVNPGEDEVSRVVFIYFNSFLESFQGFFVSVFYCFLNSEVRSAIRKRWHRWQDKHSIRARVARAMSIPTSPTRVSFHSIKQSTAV", "test": "Measurement of CRF Binding Inhibitory Rate (receptor binding experiment with 125I-CRF)", "conditions": "human CRF1 receptor expressing CHO cellular membrane fraction, 50 pM 125I-CRF, room temperature 1.5 hr, 0.05 nM to 10 μM of compound; read-out: IC50 values (CRF binding inhibition)"}},
  "note": "pIC50: −log10 of the molar value.",
  "data": [
    {"compound": "CCN(CC)c1cccc2nc3n(c12)CC(=O)CCN3c1ccc(Cl)cc1Cl", "note": "[Example 71, 1-(2,4-Dichlorophenyl)-7-(diethylamino)-2,3-dihydro-1H-[1,3]diazepino[1,2-a]benzimidazol-4(5H)-one]", "values": [
      {"measurement": "melting point", "value": "169 to 170", "unit": "°C"},
      {"measurement": "pIC50", "setting": "human CRF1 receptor", "value": "> 6.00"}
    ]},
    {"compound": "CCN(CC)c1cccc2nc3n(c12)CC(CCO)N3c1ccc(Cl)cc1Cl", "note": "(centres unmarked) [Example 74, 2-[1-(2,4-Dichlorophenyl)-5-(diethylamino)-2,3-dihydro-1H-imidazo[1,2-a]benzimidazol-2-yl]ethanol]", "values": [
      {"measurement": "melting point", "value": "222 to 223", "unit": "°C"},
      {"measurement": "pIC50", "setting": "human CRF1 receptor", "value": "> 6.00"}
    ]},
    {"compound": "CCN(CC)c1cccc2nc3n(c12)CC(CO)N3c1ccc(Cl)cc1Cl", "note": "(centres unmarked) [Example 76, [1-(2,4-Dichlorophenyl)-5-(diethylamino)-2,3-dihydro-1H-imidazo[1,2-a]benzimidazol-2-yl]methanol]", "values": [
      {"measurement": "melting point", "value": "187 to 190", "unit": "°C"},
      {"measurement": "pIC50", "setting": "human CRF1 receptor", "value": "> 6.00"}
    ]},
    {"compound": "CCN(CC)c1cccc2nc3n(c12)CC(O)CN3c1ccc(Cl)cc1Cl", "note": "(centres unmarked) [Example 77, 1-(2,4-Dichlorophenyl)-6-(diethylamino)-1,2,3,4-tetrahydropyrimido[1,2-a]benzimidazol-3-ol]", "values": [
      {"measurement": "melting point", "value": "239 to 242", "unit": "°C"},
      {"measurement": "pIC50", "setting": "human CRF1 receptor", "value": "> 6.00"}
    ]},
    {"compound": "CCC(CC)c1ccc(Cl)c2nc3n(c12)CC(C)N3c1cnc(N(C)C)cc1C", "note": "(centres unmarked) [Example 78, 5-[8-Chloro-5-(1-ethylpropyl)-2-methyl-2,3-dihydro-1H-imidazo[1,2-a]benzimidazol-1-yl]-N,N,4-trimethylpyridin-2-amine]", "values": [
      {"measurement": "melting point", "value": "204 to 206", "unit": "°C"},
      {"measurement": "pIC50", "setting": "human CRF1 receptor", "value": "> 6.00"}
    ]},
    {"compound": "CCN(CC)c1cccc2nc3n(c12)CCCN3c1cnc(OC)nc1OC", "note": "[Example 79, 1-(2,4-Dimethoxypyrimidin-5-yl)-N,N-diethyl-1,2,3,4-tetrahydropyrimido[1,2-a]benzimidazol-6-amine]", "values": [
      {"measurement": "melting point", "value": "170 to 171", "unit": "°C"},
      {"measurement": "pIC50", "setting": "human CRF1 receptor", "value": "> 6.00"}
    ]},
    {"compound": "CCN(CC)c1cccc2nc3n(c12)CCCN3c1nnc(Cl)cc1C", "note": "[Example 80, 1-(6-Chloro-4-methylpyridazin-3-yl)-N,N-diethyl-1,2,3,4-tetrahydropyrimido[1,2-a]benzimidazol-6-amine]", "values": [
      {"measurement": "melting point", "value": "193 to 195", "unit": "°C"},
      {"measurement": "pIC50", "setting": "human CRF1 receptor", "value": "> 6.00"}
    ]},
    {"compound": "CCC(OC)c1cccc2nc3n(c12)CCCN3c1ccc(Cl)cc1Cl", "note": "(centres unmarked) [Example 93, 1-(2,4-Dichlorophenyl)-6-(1-methoxypropyl)-1,2,3,4-tetrahydropyrimido[1,2-a]benzimidazole]", "values": [
      {"measurement": "melting point", "value": "151 to 153", "unit": "°C"},
      {"measurement": "pIC50", "setting": "human CRF1 receptor", "value": "> 6.00"}
    ]},
    {"compound": "CCN(CC)c1cccc2nc3n(c12)CCCCCN3c1ccc(Cl)cc1Cl", "note": "[Example 102, 1-(2,4-Dichlorophenyl)-N,N-diethyl-1,2,3,4,5,6-hexahydro[1,3]diazocino[1,2-a]benzimidazol-8-amine]", "values": [
      {"measurement": "melting point", "value": "120 to 121", "unit": "°C"},
      {"measurement": "pIC50", "setting": "human CRF1 receptor", "value": "> 6.00"}
    ]},
    {"compound": "CC(C)(O)c1ccc(Cl)c2nc3n(c12)CCCN3c1ccc(Cl)cc1Cl", "note": "[Example 106, 2-[9-Chloro-1-(2,4-dichlorophenyl)-1,2,3,4-tetrahydropyrimido[1,2-a]benzimidazol-6-yl]propan-2-ol]", "values": [
      {"measurement": "melting point", "value": "216 to 218", "unit": "°C"},
      {"measurement": "pIC50", "setting": "human CRF1 receptor", "value": "> 6.00"}
    ]},
    {"compound": "CCC(O)(CC)c1ccc(Cl)c2nc3n(c12)CCCN3c1ccc(Cl)cc1Cl", "note": "[Example 107, 3-[9-Chloro-1-(2,4-dichlorophenyl)-1,2,3,4-tetrahydropyrimido[1,2-a]benzimidazol-6-yl]pentan-3-ol]", "values": [
      {"measurement": "melting point", "value": "199 to 201", "unit": "°C"},
      {"measurement": "pIC50", "setting": "human CRF1 receptor", "value": "> 6.00"}
    ]},
    {"compound": "OC(c1ccc(Cl)c2nc3n(c12)CCCN3c1ccc(Cl)cc1Cl)(C1CC1)C1CC1", "note": "[Example 108, [9-Chloro-1-(2,4-dichlorophenyl)-1,2,3,4-tetrahydropyrimido[1,2-a]benzimidazol-6-yl](dicyclopropyl)methanol]", "values": [
      {"measurement": "melting point", "value": "184 to 186", "unit": "°C"},
      {"measurement": "pIC50", "setting": "human CRF1 receptor", "value": "> 6.00"}
    ]},
    {"compound": "COC(C)(C)c1ccc(Cl)c2nc3n(c12)CCCN3c1ccc(Cl)cc1Cl", "note": "[Example 109, 9-Chloro-1-(2,4-dichlorophenyl)-6-(1-methoxy-1-methylethyl)-1,2,3,4-tetrahydropyrimido[1,2-a]benzimidazole]", "values": [
      {"measurement": "melting point", "value": "203 to 204", "unit": "°C"},
      {"measurement": "pIC50", "setting": "human CRF1 receptor", "value": "> 6.00"}
    ]}
  ]
}
